Reference: EP2093222A1, “Polyisoprenoid epoxides useful for decreasing cholesterol and/or increasing coenzyme Q biosynthesis” (NEWBIOTECHNIC, S.A., priority 2008, dated 2009)

Key:
HepG2 cells [1] = experiment: Biosynthesis of cholesterol and CoQ by HepG2 cells: incorporation of [3H]mevalonate, lipid extraction, HPLC with on-line detection of radioactivity; type: cell-based, human; conditions: for Coenzyme Q10: labeling of CoQ
Experimental: (§1) Human hepatoblastoma (HepG2) cells (cell line derived from a human liver cancer that contains primarily CoQ with a decaprenyl side-chain available in ATCC (Cat. No. HB-8065), obtained from LGC Prochem, UK) were cultured in 10 ml DMEM medium (Invitrogen) containing 1 g glucose per 100 ml, 10% fetal bovine serum, penicillin (100 units per ml) and streptomycin ([…]). When 70% confluency was reached, the medium was changed and the compounds to be investigated added in 50-100 µl dimethylsulfoxide to give a final concentration of 2 µM or in the case of tocotrienols 5 µM. Twenty-four hours later, 0.5 mCi [^3H]mevalonate (3.25 Ci/mmol) was added and incubation continued for an additional 8 hours. When the substrate was [^3H]lanosterol (0.28 Ci/mmol) the amount added was 5 µCi. Finally, the cells were harvested by trypsinisation and stored at -20° C for later analysis.
(§2) Lipids were extracted from cells with chloroform:methanol:water (1:1:0.3), at 37°C for 1 hr with magnetic stirring (Ericsson, J., Runquist, M., Thelin, A., Andersson, M., Chojnacki, T., and Dallner, G. (1993) J Biol Chem 268(2), 832-838). The extracts thus obtained were adjusted to achieve a final chloroform:methanol:water ratio of 3:2:1 and complete phase separation then accomplished by centrifugation. The lower chloroform phase was removed and evaporated to dryness under a flow of nitrogen and the residue subsequently re-dissolved in chloroform. These solutions were placed onto a silica column (50 mg/1.5 ml; Extract-Clean, Alltech, Deerfield, IL) and thereafter eluted with 6 ml chloroform. After evaporation of the solvents, the neutral lipids were dissolved in chloroform:methanol (2:1).
(§3) For analysis of cholesterol, cholesterol metabolites, squalene, and CoQ, the samples were subjected to reversed-phase HPLC using a Supelcosil LC-18 column (3 µm, 4.0 x 75 mm) equipped with an LC-18 Supelguard (Supelco) column (Ericsson, J., Thelin, A., Chojnacki, T., and Dallner, G. (1992) J Biol Chem 267(27), 19730-19735). For separation, a stepwise gradient involving methanol:water (9:1) in pump system A and methanol:2-propanol:hexane (2:1:1) in pump system B was employed at a flow rate of 1.1 ml/min. The gradient began at 15% solvent B, with increases to 47% after 8 min, 67% after 16 min and 100% after 24 min. The lipids in the eluent were monitored at 210 nm and 275 nm with a UV detector and labeling of radioactive products was measured with on-line detector of radioactivity. Ergosterol and CoQ6 were used as internal standards.

HepG2 cells [2] = experiment: Biosynthesis of cholesterol from [3H]lanosterol in the presence of inhibitors; type: cell-based, human; conditions: for Cholesterol: 2 µM tetraepoxysolanesol or ketoconazole or 0.2 µM RO 48-8071, 24 hrs, then [3H]lanosterol 8 hrs, means ± SE of 3 experiments; for cholesterol synthesis with [3H]lanosterol as precursor: result in words
Experimental: as §1, §2, §3

HepG2 cells [3] = experiment: Biosynthesis of cholesterol and CoQ by HepG2 cells: incorporation of [3H]mevalonate, lipid extraction, HPLC with on-line detection of radioactivity; type: cell-based; conditions: Homo sapiens, [3H]mevalonate incorporation into cholesterol, read-out: inhibition (reduction) of cholesterol synthesis
[4] = 2 µM, 24 hours, then [3H]mevalonate for 8 hours, means ± SD (n = 4)
[5] = 2 µM, 24 hours, then [3H]mevalonate for 8 hours, labeling of cholesterol, means ± SD (n = 4)
[6] = 2 µM tetraepoxysolanesol or ketoconazole or 0.2 µM RO 48-8071, 24 hrs, then [3H]mevalonate 8 hrs, means ± SE
[7] = 2 µM tetraepoxysolanesol or ketoconazole or 0.2 µM RO 48-8071, 24 hrs, then [3H]mevalonate 8 hrs, means ± SE, n.d. = not detectable

Compound	Coenzyme Q10 (HepG2 cells [1]; [4])	Cholesterol (HepG2 cells [1]; [5])	further results
Farnesyl-acetate	105 ± 8 % of control	103 ± 4 % of control	
CC(=O)OC/C=C(\C)CC/C=C(\C)CC/C=C(\C)CCC=C(C)C [Geranylgeranyl-acetate]	109 ± 12 % of control	102 ± 4 % of control	
Solanesol	138 ± 14 % of control	3 ± 1 % of control	
CC(=O)N1CCN(c2ccc(OCC3COC(Cn4ccnc4)(c4ccc(Cl)cc4Cl)O3)cc2)CC1 (centres unmarked) [Ketoconazole, reference compound]			CQ10 (HepG2 cells [1]; [6]): 2.4 ± 0.3 cpm/pg protein; Cholesterol (HepG2 cells [1]; [7]): 25 ± 4 cpm/pg protein; Lanosterol (HepG2 cells [1]; [7]): 58 ± 16 cpm/pg protein; Cholesterol (HepG2 cells [2]): 1.3 ± 0.3 cpm/pg protein; cholesterol synthesis with [3H]lanosterol as precursor (HepG2 cells [2]): inhibited
CC(C)=CCC/C(C)=C/CC/C(C)=C/CC/C=C(\C)CC/C=C(\C)CCC=C(C)C [Squalene]	111 ± 8 % of control	30 ± 5 % of control	inhibition at 2 µM (HepG2 cells [3]): 70%
CC(C)=CCC/C(C)=C/CC/C(C)=C/CO [Farnesol]	100 ± 4 % of control	101 ± 3 % of control	
C=CCN(C)CCCCCCOc1ccc(C(=O)c2ccc(Br)cc2)c(F)c1 [RO 48-8071, reference compound]			CQ10 (HepG2 cells [1]; [6]): 2.1 ± 0.2 cpm/pg protein; 2,3-Oxido squalene (HepG2 cells [1]; [7]): 91 ± 10 cpm/pg protein; 2,3:22,23-Dioxidosqualene (HepG2 cells [1]; [7]): 108 ± 22 cpm/pg protein; Cholesterol (HepG2 cells [2]): 10.1 ± 1.2 cpm/pg protein; cholesterol synthesis with [3H]lanosterol as precursor (HepG2 cells [2]): neither tetraepoxysolanesol or RO 48-8071 inhibited
Vitamin K2	127 ± 18 % of control	67 ± 7 % of control	inhibition (reduction) of cholesterol synthesis (HepG2 cells [1]; 2 µM, [3H]mevalonate incorporation into cholesterol): 33%; elevation (stimulation) of CoQ synthesis (HepG2 cells [1]; 2 µM, [3H]mevalonate labeling of CoQ): 27%
Solanesyl-acetate	145 ± 18 % of control	4 ± 2 % of control	
CC(C)=CCC/C(C)=C/CC/C(C)=C/CC/C(C)=C/CO [Geranylgeraniol]	107 ± 11 % of control	102 ± 5 % of control	
